Assay results reported in patent US11192882B2, “Crystal form of small molecule immune compound, preparation method thereof and pharmaceutical composition containing the same” (SHENZHEN NEPTUNUS PHARMACEUTICAL RESEARCH INSTITUTE CO., …, priority 2018, dated 2021).
Blank lines part the entries; values can stand above or below the compound they belong to.

Assay: Stress testing (accelerated test for 10 days) of the solid: crystal form B and crude product
Format: physicochemical
Conditions: for Purity compared with day 0 (in words): accelerated test for 10 days
Procedure: Detection instrument: Agilent 1260 series (U.S.)
Chromatographic column: Waters Sunfire C18;
Mobile phase A: water-mobile phase acetonitrile B (80:20);
Column temperature: 40° C.; Detection wavelength: 390 nm.
Detection basis: High performance liquid chromatography method, Pharmacopoeia of the People's Republic of China, Part II Appendix VD
The obtained crystal form B was subjected to stability studies (accelerated test for 10 days), to compare the data of purity, maximum single impurity and total impurities of the new crystal form under the conditions of 60° C., humidity 92.5%, and light irradiation with the data on day 0.
The crude product of (3Z,6Z)-3-[((E)-3-(5-tert-butyl)-1H-imidazolyl-4-yl)meth ylene]-6-((E)-3-(3-fluorophenyl)-2-propenylene)piperazine-2,5-dione was subjected to stability studies (accelerated test for 10 days), to compare the data of purity, maximum single impurity of the crude product stored at 40° C., 60° C. to the data on day 0.

[1] = Day 10, sample 1, no stress condition given

Maximum single impurity (%) (Day 0): 0.24 (RRT: 0.95) %
Purity (%) (Day 0): 99.50%
Total impurities (%) (Day 0): 0.50%
Maximum single impurity (%) (Day 5, 60° C.): 0.24 (RRT: 0.95) %
Purity (%) (Day 5, 60° C.): 99.50%
Total impurities (%) (Day 5, 60° C.): 0.50%
Maximum single impurity (%) (Day 5, humidity 92.5%): 0.24 (RRT: 0.95) %
Purity (%) (Day 5, humidity 92.5%): 99.50%
Total impurities (%) (Day 5, humidity 92.5%): 0.50%
Maximum single impurity (%) (Day 5, light irradiation): 0.26 (RRT: 0.95) %
Purity (%) (Day 5, light irradiation): 99.40%
Total impurities (%) (Day 5, light irradiation): 0.60%
Maximum single impurity (%) (Day 10, 60° C.): 0.24 (RRT: 0.95) %
Purity (%) (Day 10, 60° C.): 99.50%
Total impurities (%) (Day 10, 60° C.): 0.50%
Maximum single impurity (%) (Day 10, humidity 92.5%): 0.24 (RRT: 0.95) %
Purity (%) (Day 10, humidity 92.5%): 99.50%
Total impurities (%) (Day 10, humidity 92.5%): 0.50%
Maximum single impurity (%) (Day 10, light irradiation): 0.26 (RRT: 0.95) %
Purity (%) (Day 10, light irradiation): 99.40%
Total impurities (%) (Day 10, light irradiation): 0.60%
Maximum single impurity (%) [1]: 0.24 (RRT: 0.95) %
Purity (%) [1]: 99.50%
Total impurities (%) [1]: 0.50%
Purity compared with day 0 (in words) (light irradiation): slightly reduced
Purity compared with day 0 (in words) (other conditions (60° C., humidity 92.5%)): stable
Compound: CC(C)(C)c1nc[nH]c1/C=c1\[nH]c(=O)/c(=C/C=C/c2cccc(F)c2)[nH]c1=O [crystal form B, (3Z,6Z)-3-[((E)-3-(5-tert-butyl)-1H-imidazolyl-4-yl)methylene]-6-((E)-3-(3-fluorophenyl)-2-propenylene)piperazine-2,5-dione]

Purity compared with crystal form B under the same conditions (in words) (60° C., day 5 and day 10): lower than that of the crystal form B
Content (%) (crude product, 40° C. Day 5): 99.08%
Maximum single impurity (%) (crude product, 40° C. Day 5): 0.25(RRT: 0.95) %
Content (%) (crude product, 40° C. Day 10): 98.68%
Maximum single impurity (%) (crude product, 40° C. Day 10): 0.50(RRT: 0.95) %
Content (%) (crude product, 60° C. Day 5): 96.89%
Maximum single impurity (%) (crude product, 60° C. Day 5): 1.14(RRT: 0.91) %
Content (%) (crude product, 60° C. Day 10): 95.27%
Maximum single impurity (%) (crude product, 60° C. Day 10): 1.88(RRT: 0.91) %
Content (%) (crude product, Day 0): 99.49%
Maximum single impurity (%) (crude product, Day 0): 0.24(RRT: 0.95) %
Compound: CC(C)(C)c1nc[nH]c1/C=c1\[nH]c(=O)/c(=C/C=C/c2cccc(F)c2)[nH]c1=O [Crude product, (3Z,6Z)-3-[((E)-3-(5-tert-butyl)-1H-imidazolyl-4-yl)methylene]-6-((E)-3-(3-fluorophenyl)-2-propenylene)piperazine-2,5-dione]
